One experiment concerns MAT B III tumors. Briefly: Histological evaluation of apoptosis (TUNEL), rat model. The note with it: 5 mg/kg, IV. It counts as in vivo, rats. Here is the method:
The rat MAT B III and the mouse 4T1 models were used in the histological studies. Animals treated with DOX-NC were exposed to the RF field 24 hours post-injection. After 24 hours from the application of the RF field, the animals were anesthetized with an IP injection of ketamine/xylazine and transcardially perfused with heparinized PBS followed by 4% paraformaldehyde in PBS. Controls included animals treated with DOX-NC (no RF), 35-nm liposomal DOX (with RF), 100-nm liposomal DOX (with RF), free DOX, RF alone and saline. The tumors were explanted and post-fixed overnight in 4% paraformaldehyde in PBS. The fixed tumors were soaked in 30% sucrose (w/v) in PBS at 4° C. for cryosectioning. Serial sections of 12 μm thickness were collected using a cryostat (Leica CM 300).
To visualize the tumor microvasculature, the tissue slices were immunohistochemically stained for the specific endothelial antigen CD31 (BD Biosciences, Pharmingen). The tissues were also stained with the nuclear stain DAPI. […] Direct fluorescence (red) imaging of tumor sections were performed for imaging DOX. Apoptosis was detected using a TUNEL assay (Promega). […] The total number of cells was counted based on the nuclear stain (DAPI) in multiple histological sections per tumor (minimum 20), whereas apoptotic cells were quantified based on TUNEL-stained nuclei.

The test system of experiment [1] is 13762 MAT B III tumor model. Put plainly: Tumor growth and survival study. The note with it: single treatment 0.5 mg/kg DOX, without RF. It counts as in vivo, rats. From the text:
The rat tumor model was established by a subcutaneous injection of 1×10^6 13762 MAT B III cells into the right flank of female Fisher rats. Mouse tumors were generated orthotopically in female BALB/c mice by injection of 0.5×10^6 4 T1 cells into the inguinalmammary fat pad. Once the appropriate tumor size was established (diameter ˜0.5 cm), the animals were used in the in vivo studies. Each cell line required different lag times to produce a tumor lesion of about 0.5 cm in size (5 and 8 days for the MAT B III and 4T1 model, respectively). Based on our prior experience, we chose this tumor size as the starting point of the animal studies, since the primary tumor mass is sufficiently large to present angiogenic, necrotic and invasive areas, and therefore may be more informative and relevant to human disease.
Once the appropriate tumor sizes were established (diameter ˜0.5 cm), the rat tumor model was IV injected with DOX-NC at a dose of 0.5 mg/kg DOX. After 24 hours from injection, animals were exposed to the RF field operated as described previously. Following the same dose and schedule, control groups included animals treated with DOX-NC (but no RF), only RF, liposomal DOX, liposomal DOX with RF, free DOX, and saline. […] The tumor growth was monitored every day using caliper measurements. […] Time of death was determined to be the following day.

From patent US11065202B2, “Multi-component nanochains” (CASE WESTERN RESERVE UNIVERSITY, priority 2011, dated 2021) come the findings set out here.

Structures are written as SMILES.

Consider `COc1cccc2c1C(=O)c1c(O)c3c(c(O)c1C2=O)C[C@@](O)(C(=O)CO)C[C@@H]3O[C@H]1C[C@H](N)[C@H](O)[C@H](C)O1` [free DOX, doxorubicin], for which the “apoptotic cells in tumor (visual inspection)” value with MAT B III tumors is reported as “substantial number of apoptotic cells”. Moreover, the tumor growth result in experiment [1] was “failed to produce any therapeutic benefits”.
